Laboratory results: patent publication US20250339425A1 (Northeastern University, priority 2024, published 2025)
Like-named read-outs stand apart in the source and are kept apart here.

Key:
[1] = molecular target: T1, α9 nAChR (Homo sapiens, UniProt Q9UGM1); experiment: cell-based
[2] = molecular target: T1, α9 nAChR; details: for EC50: read-out: α9 EC50
[3] = molecular target: human α7 nAChR (Homo sapiens, UniProt P36544)
[4] = test system: BzATP-induced release of IL-1β by human monocytic THP-1 cells; experiment: BzATP-induced release of IL-1β by LPS-primed monocytic THP-1 cells (ELISA); details: for inhibitory effect on IL-1β release at the lowest concentration tested: 1 nM; for inhibition of BzATP-induced release of IL-1β: LPS-primed THP-1 cells, ACh at 10 μM; for antagonism of the effect of ACh on IL-1β release: all concentrations investigated (1 nM to 100 μM), ACh 10 μM
Protocol: Monocytic THP-1 cells were primed with lipopolysaccharide (LPS; 1 μg/ml, 5 hours). Thereafter, the P2X7 receptor agonist BzATP (100 μM) was added for another 40 minutes to trigger IL-1β release. […] The IL-1β concentrations obtained after stimulation with BzATP+solvent were set to 100% and all other values were calculated accordingly. Data are presented as individual data points, the bar represents the median, and whiskers encompass the 25th to 75th percentile. *p≤0.05, different from LPS-primed cells stimulated with BzATP alone. Friedman test followed by the Wilcoxon signed-rank test.
The new compounds were tested for the ability to down-regulate the ATP-mediated release of 10 IL-1β by human monocytic THP-1 cells.
Monocytic THP-1 cells were primed with lipopolysaccharide (LPS, 1 μg/ml) for 5 hours and further stimulated them with BzATP (100 μg/ml) for 40 minutes to induce the maturation and release of IL-1β.
The monocytic THP-1 cell line was obtained from the German Collection of Microorganisms and Cell Cultures (Braunschweig, Germany). […] Thereafter, 0.5×10^6 cells/0.5 ml and per well were seeded in 48-well plates (Greiner Bio-One, Frickenhausen, Germany) as described previously.^27 The cells were primed with LPS (1 μg/ml; E. coli O26:B6, Merck, Darmstadt, Germany, Cat #L2654) for 5 h under 5% CO2 atmosphere at 37° C. […] After the treatment, cells were spun down (500 g, 8 min, 4° C.) to collect the cell-free supernatants, that were stored at −20° C. for later measurements of IL-1β and lactate dehydrogenase (LDH) activity.
To measure IL-1β concentrations in the cell-free supernatants the Human IL-1 beta/IL-1F2 DuoSet enzyme-linked immunosorbent assay (ELISA) from R&D Systems (Cat #DY201) was used according to the supplier's instructions. In parallel, LDH activity was measured to test for cell viability at the end of the cell culture experiments, using the CytoTox 96® Non-Radioactive Cytotoxicity Assay (Promega, Madison, WI, United States; Cat #G1780) according to the supplier's instructions.
Results obtained in the BzATP-induced IL-1β release experiments were analyzed using SPSS (Version 27, IBM, Armonk, NY, United States). The data were analyzed first by the Friedman test followed by the Wilcoxon signed-rank test. […] The number (n) of individual experiments is indicated in the Figures and refers to independent experiments, which were performed on different days with different cell passages.

[5] = In vitro metabolic stability in pooled human liver microsomes
[6] = Plasma protein binding
[7] = In vitro metabolic stability in rat hepatocytes
[8] = in vitro; details: BALB/c, mouse, pooled mouse plasma
[9] = molecular target: T2, α9α10 nAChR (Homo sapiens, UniProt Q9GZZ6+Q9UGM1); experiment: Inhibition of ACh-evoked currents, co-application with 60 μM ACh, oocytes expressing α9α10; assay type: cell-based; details: co-applied with 60 μM ACh; unit not printed for these values (α9 values in μM); read-out: IC50 as antagonist on α9α10
T2 construct: expressed in transfected cells; host or cells: Xenopus laevis oocytes injected with in vitro transcribed RNA
Protocol: (§1) FIGS. 13A-13B show inhibition concentration-response studies for chiral diMPP compounds (2R)PA-diMPP (8) and (2S)PA-diMPP (9), identified as α9 and α9α10 antagonists.
(§2) Experimental responses were measured relative to the preceding ACh control response. […] The transition from agonist to antagonist behavior in α7 to α9* nAChRs indicates a slightly bigger dialkyl tail on nitrogen, or perhaps more importantly, the asymmetry of the groups and potential for multiple rotamers is important for α9 agonism, while chirality is more important for α7 selectivity.
(§3) Two-electrode voltage-clamp experiments were conducted using OpusXpress 6000A (Molecular Devices, Union City CA, USA). Both the voltage and current electrodes were filled with 3 M KCl. Oocytes were voltage-clamped at −60 mV at room temperature. The oocytes were perfused with Ringer's solution (115 mM NaCl, 2.5 mM KCl, 1.8 mM CaCl2), 10 mM HEPES, 1 μM atropine, pH 7.2) at 2 ml/min. […] Drug applications were 12 s in duration followed by 181 s washout periods.

[10] = molecular target: T1, α9 nAChR; experiment: Inhibition of ACh-evoked currents, co-application with 60 μM ACh, oocytes expressing α9; assay type: cell-based; parameters: expressed in transfected cells; host or cells: Xenopus laevis oocytes injected with in vitro transcribed RNA; details: co-applied with 60 μM ACh; read-out: IC50 as antagonist on α9
Protocol: as §1, §2, §3

[11] = Table 1, peak current, relative to ACh maximum
[12] = Table 1, unit not given (0.23 as 230 nM)
[13] = Table 1, net charge, relative to ACh maximum
[14] = read-out: α7 EC50, Table 1, unit inferred
[15] = Table 4, chiral EMPPs and diMPPs
[16] = read-out: α7 EC50, Table 2, unit inferred
[17] = read-out: α7 EC50, Table 4, unit inferred

human α7 nAChR, sequence (P36544 23-502): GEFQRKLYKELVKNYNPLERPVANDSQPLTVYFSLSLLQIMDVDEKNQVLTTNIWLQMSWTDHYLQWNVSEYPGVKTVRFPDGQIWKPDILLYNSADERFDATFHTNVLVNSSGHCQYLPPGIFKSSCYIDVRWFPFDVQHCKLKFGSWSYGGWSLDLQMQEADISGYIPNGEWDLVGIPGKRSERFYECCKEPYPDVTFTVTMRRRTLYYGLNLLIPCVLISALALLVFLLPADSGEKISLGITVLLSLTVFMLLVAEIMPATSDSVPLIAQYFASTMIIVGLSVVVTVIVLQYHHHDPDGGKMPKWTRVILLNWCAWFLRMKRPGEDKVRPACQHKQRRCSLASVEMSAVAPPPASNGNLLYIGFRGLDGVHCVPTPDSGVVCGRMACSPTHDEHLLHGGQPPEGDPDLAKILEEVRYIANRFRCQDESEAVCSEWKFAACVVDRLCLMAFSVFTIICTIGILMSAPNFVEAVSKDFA
T1 sequence (Q9UGM1 26-479 limits assumed): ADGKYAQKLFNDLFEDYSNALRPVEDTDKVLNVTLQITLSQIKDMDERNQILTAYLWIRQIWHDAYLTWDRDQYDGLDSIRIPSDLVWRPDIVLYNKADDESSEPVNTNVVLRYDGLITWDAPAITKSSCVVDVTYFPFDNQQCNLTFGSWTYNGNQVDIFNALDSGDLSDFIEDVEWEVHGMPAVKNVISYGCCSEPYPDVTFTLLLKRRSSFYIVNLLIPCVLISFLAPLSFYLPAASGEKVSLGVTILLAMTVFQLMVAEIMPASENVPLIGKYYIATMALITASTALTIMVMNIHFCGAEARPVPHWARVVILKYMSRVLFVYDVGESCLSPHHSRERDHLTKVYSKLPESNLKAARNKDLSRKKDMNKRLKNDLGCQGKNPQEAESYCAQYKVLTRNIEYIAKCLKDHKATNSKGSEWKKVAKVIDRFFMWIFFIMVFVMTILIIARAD
T2 sequence (Q9UGM1 26-479 limits assumed): as above
T2 sequence (Q9GZZ6 25-450): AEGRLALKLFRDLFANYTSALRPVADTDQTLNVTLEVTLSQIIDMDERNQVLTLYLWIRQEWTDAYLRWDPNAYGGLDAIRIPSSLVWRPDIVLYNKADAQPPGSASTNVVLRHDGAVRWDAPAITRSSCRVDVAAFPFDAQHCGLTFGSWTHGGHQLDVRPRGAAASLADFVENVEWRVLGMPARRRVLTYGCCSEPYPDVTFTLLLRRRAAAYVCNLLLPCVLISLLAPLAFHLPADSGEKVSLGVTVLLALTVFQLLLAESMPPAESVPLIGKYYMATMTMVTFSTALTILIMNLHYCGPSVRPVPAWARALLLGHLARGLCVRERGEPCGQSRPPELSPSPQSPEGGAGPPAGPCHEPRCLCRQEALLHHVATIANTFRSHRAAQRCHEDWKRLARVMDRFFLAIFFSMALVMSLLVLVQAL

CC[N+]1(C)CCN(c2ccc(NC(=O)c3ccc4ccccc4n3)cc2)CC1 [V-f]
EC50 [1]: 157 nM
α9 Imax ([2]; Table 3, reverse amide GATs): 1.008 ± 0.048
EC50 [3]: 2030 ± 540 nM
α7 Imax ([3]; Table 3): 0.124 ± 0.009

CC[N+]1(CC)CCN(c2ccc(NC(=O)c3cccc(C)n3)cc2)CC1.[I-] [Compound I, 1,1-Diethyl-4-(4-(6-methylpicolinamido)phenyl)piperazin-1-ium iodide]
α9 Imax [2, 11]: 1.24 ± 0.04
α9 Imax ([2]; Table 3, reverse amide GATs): 1.01 ± 0.03
EC50 [2, 12]: 1630 ± 200 nM
EC50 ([2]; Table 3, unit not printed (text gives 0.086 as 86 nM)): 230 ± 34 nM
α7 Imax [3, 13]: 0.14 ± 0.004
α7 Imax ([3]; Table 3): 0.41 ± 0.025
EC50 [3, 14]: 4680 ± 540 nM
EC50 ([3]; read-out: α7 EC50, Table 3, unit inferred): 78300 ± 11300 nM

CC[N+]1(C)CCN(c2ccc(NC(=O)c3cccc(Cl)n3)cc2)CC1 [V-b]
EC50 [1]: 560 ± 65 nM
α9 Imax ([2]; Table 3, reverse amide GATs): 1.00 ± 0.18
EC50 [3]: 14000 nM
α7 Imax ([3]; Table 3): 0.10 ± 0.028

CC[N+]1(C)CCN(c2ccc(C(=O)Nc3cccc(C)n3)cc2)C[C@H]1C (stereo partly drawn) [Compound IV-a, (2R)-1-ethyl-1,2-dimethyl-4-(4-((6-methylpyridin-2-yl)carbamoyl)phenyl)piperazin-1-ium iodide]
receptor selectivity α9 vs α7 [2]: selective towards α7
α9 Imax ([2]; Table 2, chiral compounds): 0.0521 ± 0.013
α9 Imax [2, 15]: 0.052 ± 0.013
EC50 ([2]; Table 2, unit inferred): 1930 ± 2250 nM
EC50 ([2]; Table 4, unit inferred): 1930 ± 2250 nM
inhibitory effect on IL-1β release at the lowest concentration tested [4]: moderate but significant inhibitory effects
inhibition of BzATP-induced release of IL-1β [4]: significantly inhibited
α7 Imax ([3]; Table 2, chiral compounds): 0.548 ± 0.02
α7 Imax ([3]; Table 4): 0.55 ± 0.02
EC50 [3, 16]: 7160 ± 1290 nM
EC50 [3, 17]: 7160 nM

CC[N+]1(C)CCN(c2ccc(NC(=O)c3cccc(Br)n3)cc2)CC1 [V-a]
EC50 [1]: 440 ± 108 nM
α9 Imax ([2]; Table 3, reverse amide GATs): 0.936 ± 0.04
EC50 [3]: 7100 ± 3170 nM
α7 Imax ([3]; Table 3): 0.094 ± 0.012

CC[N+]1(C)CCN(c2ccc(NC(=O)c3cccc(F)n3)cc2)CC1 [V-c]
EC50 [1]: 810 ± 380 nM
α9 Imax ([2]; Table 3, reverse amide GATs): 1.2 ± 0.13
α7 Imax ([3]; Table 3): 0.000 ± 0.000

CC[N+]1(C)CCN(c2ccc(C(=O)Nc3cccc(C)n3)cc2)CC1 [Compound 3f, reference compound]
clearance [5]: low clearance
α9 Imax [2, 11]: 1.19 ± 0.03
α9 Imax [2, 15]: 1.19 ± 0.03
EC50 [2, 12]: 510 ± 70 nM
EC50 ([2]; Table 4, unit inferred): 510 ± 70 nM
plasma protein binding [6]: 32%
clearance [7]: low clearance
α7 Imax [3, 13]: 0.40 ± 0.02
α7 Imax ([3]; Table 4): 0.40 ± 0.02
EC50 [3, 14]: 6100 ± 1100 nM
EC50 [3, 17]: 6100 ± 1100 nM

CC[N+]1(C)CCN(c2ccc(NC(=O)c3ncc(C(F)(F)F)cc3Cl)cc2)CC1 [V-i]
EC50 [1]: 810 ± 380 nM
α9 Imax ([2]; Table 3, reverse amide GATs): 1.23 ± 0.13
α7 Imax ([3]; Table 3): 0.001 ± 0.14

CCN(CC)CCOC(=O)c1ccc(N)cc1 [procaine]
half-life at 1 μM [8]: < 5 min

CC[N+]1(C)CCN(c2ccc(NC(C)=O)cc2)CC1 [Compound III, 4-(4-Acetamidophenyl)-1-ethyl-1-methylpiperazin-1-ium Iodide]
EC50 [1]: 230 nM
α9 Imax [2, 11]: 0.75 ± 0.04
EC50 [2, 12]: 2270 ± 490 nM
increase in potency relative to ACh ([2]; α9): 113 fold

CC[N+]1(C)CCN(c2ccc(C#N)cc2)C[C@H]1C (stereo partly drawn) [(2R)r/s-pCN-EMPP]
inhibitory effect on IL-1β release at the lowest concentration tested [4]: moderate but significant inhibitory effects
inhibition of BzATP-induced release of IL-1β [4]: significantly inhibited

CC[N+]1(C)CCN(c2ccc(C#N)cc2)CC1C [(2S)r/s-pCN-EMPP]
inhibition of BzATP-induced release of IL-1β [4]: significantly inhibited
EC50 [3]: 26600 ± 9600 nM

Cc1cccc(NC(=O)c2ccc(N3CC[N+](C)(C)[C@@H](C)C3)cc2)n1 [Compound IV-e]
IC50 [9]: 4.33 ± 1.14 µM
receptor selectivity α9 vs α7 [2]: selective for α7
type of activity at α9 / α9* nAChR [2]: antagonists of the alpha 9 nicotinic acetylcholine receptor
α9 Imax ([2]; Table 2, chiral compounds): 0.04 ± 0.005
α9 Imax [2, 15]: 0.04 ± 0.005
type of activity at α9 / α9* nAChR ([2]; listed as (2S)PA-diMPP): lost nearly all agonist activity for α9* receptors
EC50 ([2]; Table 2, unit inferred): 800 ± 600 nM
EC50 ([2]; Table 4, unit inferred): 800 ± 600 nM
inhibition of BzATP-induced release of IL-1β [4]: significantly inhibited
antagonism of the effect of ACh on IL-1β release [4]: significantly antagonized the effect of ACh
IC50 [10]: 240 ± 110 nM
α7 Imax ([3]; Table 2, chiral compounds): 0.397 ± 0.011
α7 Imax ([3]; Table 4): 0.397 ± 0.01
EC50 [3, 16]: 3490 ± 350 nM
EC50 [3, 17]: 3490 ± 350 nM

CC[N+]1(C)CCN(c2ccc(C(=O)Nc3cccc(C)n3)cc2)C[C@@H]1C (stereo partly drawn) [IV-b]
receptor selectivity α9 vs α7 [2]: selective towards α9
α9 Imax ([2]; Table 2, chiral compounds): 0.670 ± 0.02
α9 Imax [2, 15]: 0.670 ± 0.02
EC50 ([2]; Table 2, unit inferred): 2090 ± 630 nM
EC50 ([2]; Table 4, unit inferred): 2090 ± 630 nM
inhibition of BzATP-induced release of IL-1β [4]: significantly inhibited
α7 Imax ([3]; Table 2, chiral compounds): 0.238 ± 0.004
α7 Imax ([3]; Table 4): 0.24 ± 0.004
EC50 [3, 16]: 7100 ± 490 nM
EC50 [3, 17]: 7100 ± 490 nM

Cc1cccc(NC(=O)c2ccc(N3CC[N+](C)(C)[C@H](C)C3)cc2)n1 [IV-f]
IC50 [9]: 0.406 ± 0.15 µM
receptor selectivity α9 vs α7 [2]: selective for α7
type of activity at α9 / α9* nAChR [2]: antagonists of the alpha 9 nicotinic acetylcholine receptor
α9 Imax ([2]; Table 2, chiral compounds): 0.0065 ± 0.72
α9 Imax [2, 15]: 0.0065 ± 0.72
type of activity at α9 / α9* nAChR ([2]; listed as (2R)PA-diMPP): lost nearly all agonist activity for α9* receptors
inhibition of BzATP-induced release of IL-1β [4]: significantly inhibited
antagonism of the effect of ACh on IL-1β release [4]: significantly antagonized the effect of ACh
IC50 [10]: 210 ± 60 nM
α7 Imax ([3]; Table 2, chiral compounds): 0.426 ± 0.021
α7 Imax ([3]; Table 4): 0.426 ± 0.02
EC50 [3, 16]: 3060 ± 380 nM
EC50 [3, 17]: 3060 ± 380 nM

CC[N+]1(C)CCN(c2ccc(NC(=O)c3ccc(C)cn3)cc2)CC1 [V-h]
EC50 [1]: 440 ± 140 nM
α9 Imax ([2]; Table 3, reverse amide GATs): 1.00 ± 0.08
EC50 [3]: 315000 nM
α7 Imax ([3]; Table 3): 0.266 ± 0.33
